According to patent publication US20130164384A1, “METHODS OF TREATING BOWEL DISEASES BY ADMINISTERING A BOWEL CLEANSER AND AN ANTIBIOTIC” (Salix Pharmaceuticals, Ltd., priority 2008, published 2013):

Test system: subjects with dIBS
Experiment: Study of three rifaximin doses in subjects with dIBS: adequate relief of IBS symptoms and bloating
Format: in vivo, human
Settings: for Adequate Relief of Bloating: Success / Adequate Relief of IBS Symptoms: Failure / Adequate Relief of IBS Symptoms: Success / Adequate Relief of Bloating: Failure: end of treatment phase
Experimental: This example relates to a study of three rifaximin doses in subjects with dIBS. Subjects were randomized to receive daily BID doses of rifaximin 275 mg, 550 mg, or 1100 mg for 14 days. A fifth group of subjects received rifaximin 550 mg BID for a period of 28 days. Subjects were questioned on the relief of overall IBS symptoms and bloating. […] The analyses defined success as a “yes” response to questions regarding adequate relief of SGA or IBS-B in at least 2 out of the final 3 weeks of the double-blind treatment period.
Baseline severity was determined using 7-point Lickert scales during screening for Abdominal Pain/Discomfort and Bloating, and the number, type (normal, hard, loose) and urgency of bowel movements.
Duration of effect was assessed in a 12 week follow-up period. Subjects that responded in the 4 week double-blind treatment period were followed for an additional 3 months. Fifty-three (53) subjects from the 550 mg 2 w and 59 subjects from the placebo-treated groups participated in this study phase.
Subjects recorded the following information on dIBS symptoms daily throughout the duration of the study: • Number of normal stools/day; • Number of hard and lumpy stools/day; • Number of loose or watery stools/day; • Number of loose or watery stools/day with the symptom of urgency; • How bothersome is abdominal pain and discomfort? [7-point response scale: 0 (not at all) to 6 (a very great deal)]; • How bothersome is bloating? [(7-point response scale: 0 (not at all) to 6 (a very great deal)].
Weekly summary variables were computed by averaging the recorded values over all pre-treatment days or over the seven days preceding the time point of interest for post-treatment assessments. For example, baseline included Days −10 to 0, Week 1 included Days 1 to 7, Week 2 included Days 8 to 14, and so forth through Week 16. Changes from baseline variables were computed for each weekly summary score.

[1] = RFX 550 2 w (550 mg BID 14 days), had screening colonoscopy, Average Bloating Discomfort Score at Baseline >4
[2] = RFX 550 4 w (550 mg BID 28 days), Had a Screening Colonoscopy: No
[3] = RFX 550 4 w (550 mg BID 28 days), Had a Screening Colonoscopy: Yes
[4] = RFX 550 4 w (550 mg BID 28 days), Screening Colonoscopy <=26 Days
[5] = RFX 550 4 w (550 mg BID 28 days), Screening Colonoscopy >26 Days
[6] = RFX 550 4 w (550 mg BID 28 days), had screening colonoscopy, Average Abdominal Pain Discomfort Score at Baseline <=4
[7] = RFX 550 4 w (550 mg BID 28 days), had screening colonoscopy, Average Abdominal Pain Discomfort Score at Baseline >4
[8] = RFX 550 4 w (550 mg BID 28 days), had screening colonoscopy, Average Bloating Discomfort Score at Baseline <=4
[9] = RFX 550 4 w (550 mg BID 28 days), had screening colonoscopy, Average Bloating Discomfort Score at Baseline >4
[10] = RFX 1100 2 w (1100 mg BID 14 days), Had a Screening Colonoscopy: No
[11] = RFX 1100 2 w (1100 mg BID 14 days), Had a Screening Colonoscopy: Yes
[12] = RFX 1100 2 w (1100 mg BID 14 days), Screening Colonoscopy <=26 Days
[13] = RFX 1100 2 w (1100 mg BID 14 days), Screening Colonoscopy >26 Days
[14] = RFX 1100 2 w (1100 mg BID 14 days), had screening colonoscopy, Average Abdominal Pain Discomfort Score at Baseline <=4
[15] = RFX 1100 2 w (1100 mg BID 14 days), had screening colonoscopy, Average Abdominal Pain Discomfort Score at Baseline >4
[16] = RFX 1100 2 w (1100 mg BID 14 days), had screening colonoscopy, Average Bloating Discomfort Score at Baseline <=4
[17] = RFX 1100 2 w (1100 mg BID 14 days), had screening colonoscopy, Average Bloating Discomfort Score at Baseline >4

In the case of `COC1/C=C/OC2(C)Oc3c(C)c(O)c4c(O)c(c5c(nc6cc(C)ccn65)c4c3C2=O)NC(=O)/C(C)=C\C=C\C(C)C(O)C(C)C(O)C(C)C(OC(C)=O)C1C` [RFX, (2S,16Z,18E,20S,21S,22R,23R,24R,25S,26S,27S,28E)-5,6,21,23,25 Pentahydroxy-27-methoxy-2,4,11,16,20,22,24,26-octamethyl-2,7-(epoxypentadeca-(1,11,13)trienimino)benzofuro(4,5-e)pyrido(1,2,-a)benzimidazole-1,15(2H)-dione,25-acetate], the “Adequate Relief of Bloating: Success” value [1] is reported as 8 (50.0%) n (%), the “Adequate Relief of IBS Symptoms: Failure” value [1] is reported as 8 (50.0%) n (%) and the “Adequate Relief of IBS Symptoms: Success” value [1] is reported as 8 (50.0%) n (%). The “Adequate Relief of Bloating: Failure” value [2] was 37 (64.9%) n (%), the “Adequate Relief of Bloating: Success” value [2] was 20 (35.1%) n (%) and the “Adequate Relief of IBS Symptoms: Failure” value [2] was 35 (61.4%) n (%). For the same compound, the “Adequate Relief of IBS Symptoms: Success” value [2] was 22 (38.6%) n (%), the “Adequate Relief of Bloating: Failure” value [3] was 23 (56.1%) n (%) and the “Adequate Relief of Bloating: Success” value [3] was 18 (43.9%) n (%). The “Adequate Relief of IBS Symptoms: Failure” value [3] was 22 (53.7%) n (%), the “Adequate Relief of IBS Symptoms: Success” value [3] was 19 (46.3%) n (%) and the “Adequate Relief of Bloating: Failure” value [4] was 12 (48.0%) n (%). The “Adequate Relief of Bloating: Success” value [4] was 13 (52.0%) n (%), the “Adequate Relief of IBS Symptoms: Failure” value [4] was 11 (44.0%) n (%) and the “Adequate Relief of IBS Symptoms: Success” value [4] was 14 (56.0%) n (%). The “Adequate Relief of Bloating: Failure” value [5] was 11 (68.8%) n (%), the “Adequate Relief of Bloating: Success” value [5] was 5 (31.3%) n (%) and the “Adequate Relief of IBS Symptoms: Failure” value [5] was 11 (68.8%) n (%). For the same compound, the “Adequate Relief of IBS Symptoms: Success” value [5] was 5 (31.3%) n (%), the “Adequate Relief of Bloating: Failure” value [6] was 19 (59.4%) n (%) and the “Adequate Relief of Bloating: Success” value [6] was 13 (40.6%) n (%). For the same compound, the “Adequate Relief of IBS Symptoms: Failure” value [6] was 19 (59.4%) n (%), the “Adequate Relief of IBS Symptoms: Success” value [6] was 13 (40.6%) n (%) and the “Adequate Relief of Bloating: Failure” value [7] was 4 (44.4%) n (%). The “Adequate Relief of Bloating: Success” value [7] was 5 (55.6%) n (%), the “Adequate Relief of IBS Symptoms: Failure” value [7] was 3 (33.3%) n (%) and the “Adequate Relief of IBS Symptoms: Success” value [7] was 6 (66.7%) n (%). For the same compound, the “Adequate Relief of Bloating: Failure” value [8] was 15 (57.7%) n (%), the “Adequate Relief of Bloating: Success” value [8] was 11 (42.3%) n (%) and the “Adequate Relief of IBS Symptoms: Failure” value [8] was 15 (57.7%) n (%). The “Adequate Relief of IBS Symptoms: Success” value [8] was 11 (42.3%) n (%), the “Adequate Relief of Bloating: Failure” value [9] was 8 (53.3%) n (%) and the “Adequate Relief of Bloating: Success” value [9] was 7 (46.7%) n (%). For the same compound, the “Adequate Relief of IBS Symptoms: Failure” value [9] was 7 (46.7%) n (%), the “Adequate Relief of IBS Symptoms: Success” value [9] was 8 (53.3%) n (%) and the “Adequate Relief of Bloating: Failure” value [10] was 30 (66.7%) n (%). For the same compound, the “Adequate Relief of Bloating: Success” value [10] was 15 (33.3%) n (%), the “Adequate Relief of IBS Symptoms: Failure” value [10] was 27 (60.0%) n (%) and the “Adequate Relief of IBS Symptoms: Success” value [10] was 18 (40.0%) n (%). The “Adequate Relief of Bloating: Failure” value [11] was 31 (57.4%) n (%), the “Adequate Relief of Bloating: Success” value [11] was 23 (42.6%) n (%) and the “Adequate Relief of IBS Symptoms: Failure” value [11] was 31 (57.4%) n (%). The “Adequate Relief of IBS Symptoms: Success” value [11] was 23 (42.6%) n (%), the “Adequate Relief of Bloating: Failure” value [12] was 20 (55.6%) n (%) and the “Adequate Relief of Bloating: Success” value [12] was 16 (44.4%) n (%). The “Adequate Relief of IBS Symptoms: Failure” value [12] was 19 (52.8%) n (%), the “Adequate Relief of IBS Symptoms: Success” value [12] was 17 (47.2%) n (%) and the “Adequate Relief of Bloating: Failure” value [13] was 11 (61.1%) n (%). For the same compound, the “Adequate Relief of Bloating: Success” value [13] was 7 (38.9%) n (%), the “Adequate Relief of IBS Symptoms: Failure” value [13] was 12 (66.7%) n (%) and the “Adequate Relief of IBS Symptoms: Success” value [13] was 6 (33.3%) n (%). The “Adequate Relief of Bloating: Failure” value [14] was 22 (50.0%) n (%), the “Adequate Relief of Bloating: Success” value [14] was 22 (50.0%) n (%) and the “Adequate Relief of IBS Symptoms: Failure” value [14] was 23 (52.3%) n (%). The “Adequate Relief of IBS Symptoms: Success” value [14] was 21 (47.7%) n (%), the “Adequate Relief of Bloating: Failure” value [15] was 9 (90.0%) n (%) and the “Adequate Relief of Bloating: Success” value [15] was 1 (10.0%) n (%). The “Adequate Relief of IBS Symptoms: Failure” value [15] was 8 (80.0%) n (%), the “Adequate Relief of IBS Symptoms: Success” value [15] was 2 (20.0%) n (%) and the “Adequate Relief of Bloating: Failure” value [16] was 21 (47.7%) n (%). For the same compound, the “Adequate Relief of Bloating: Success” value [16] was 23 (52.3%) n (%), the “Adequate Relief of IBS Symptoms: Failure” value [16] was 21 (47.7%) n (%) and the “Adequate Relief of IBS Symptoms: Success” value [16] was 23 (52.3%) n (%). The “Adequate Relief of Bloating: Failure” value [17] was 10 (100.0%) n (%), the “Adequate Relief of Bloating: Success” value [17] was 0 n (%) and the “Adequate Relief of IBS Symptoms: Failure” value [17] was 10 (100.0%) n (%). For the same compound, the “Adequate Relief of IBS Symptoms: Success” value [17] was 0 n (%), the “Likelihood of treatment effect with a purgative prior to rifaximin versus no cleanser” value (purgative prior to treatment) was “much more likely to have a treatment effect” and the “Rate of success in relief of symptoms with screening colonoscopy (GI cleanser) prior to rifaximin” value (subjects who had a screening colonoscopy) was “higher rate of success in relief of symptoms”.
